# Results: publication PMC10858940, “Repositioning baloxavir marboxil as VISTA agonist that ameliorates experimental asthma” (Cell Biology and Toxicology, 2024)
# Read-outs that look alike come from different tables or passages of the source.
# Legend:
# [1] = molecular target: T1, VISTA (V-type immunoglobulin domain–containing suppressor of T-cell activation) (Homo sapiens, UniProt Q9H7M9); assay: SPR (Biacore T200, human VISTA immobilized on CM5 chip); assay type: binding
# T1 construct: gene VSIR; human VISTA-ECD protein
# T1 sequence (Q9H7M9 33-194): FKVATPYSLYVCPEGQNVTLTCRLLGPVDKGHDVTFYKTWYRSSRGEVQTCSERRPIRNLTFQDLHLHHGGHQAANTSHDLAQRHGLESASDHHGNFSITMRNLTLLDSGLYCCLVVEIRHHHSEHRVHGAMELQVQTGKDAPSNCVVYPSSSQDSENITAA
# [2] = molecular target: T2, VISTA (V-type immunoglobulin domain–containing suppressor of T-cell activation) (Homo sapiens, UniProt Q9H7M9); assay: as above; assay type: binding
# T2 construct: gene VSIR; human VISTA protein
# T2 sequence (Q9H7M9 33-194 limits assumed): T1 sequence (Q9H7M9 33-194)
Kd [1],Kd [2],Compound
210 nM,–,"O=C1c2c(O)c(=O)ccn2N([C@@H]2c3ccccc3SCc3c2ccc(F)c3F)[C@@H]2COCCN12 [BXA, baloxavir acid]"
–,1070 nM,"COC(=O)OCOc1c2n(ccc1=O)N([C@@H]1c3ccccc3SCc3c1ccc(F)c3F)[C@@H]1COCCN1C2=O [BXM, baloxavir marboxil]"
